Reference: publication PMC10030653, “ClpC2 protects mycobacteria against a natural antibiotic targeting ClpC1-dependent protein degradation” (Communications Biology, 2023)

Columns and labels:
ClpC1 NTD = details: cited from earlier work
[1] = target: cyclomarin A (Streptomyces sp. CNB-982); test: ITC; 50 uM (monomer) ClpC1 NTD or ClpC2 titrated into 5 uM CymA at 37 C; 50 mM HEPES-KOH pH 7.5, 150 mM KCl, 9% DMSO, 1 mM EDTA; one-site binding model
[2] = tested on: DNA probe containing the clpC2 operator site; test: EMSA, ClpC1 binding to DNA
ClpC1 = ClpC1 (Mycobacterium tuberculosis, UniProt P9WPC9 1-848); test: EMSA; 1-25 uM ClpC1, 0.5 nM DNA; EMSA: 5 mM HEPES-KOH pH 7.5, 30 mM KCl, 1% glycerol, 10 mM MgCl2, room temperature 20 min, 12% polyacrylamide gel; details: protein: recombinant; tags: untagged; label: 5'-FAM; blunt
Sequence of ClpC1 (P9WPC9 whole entry): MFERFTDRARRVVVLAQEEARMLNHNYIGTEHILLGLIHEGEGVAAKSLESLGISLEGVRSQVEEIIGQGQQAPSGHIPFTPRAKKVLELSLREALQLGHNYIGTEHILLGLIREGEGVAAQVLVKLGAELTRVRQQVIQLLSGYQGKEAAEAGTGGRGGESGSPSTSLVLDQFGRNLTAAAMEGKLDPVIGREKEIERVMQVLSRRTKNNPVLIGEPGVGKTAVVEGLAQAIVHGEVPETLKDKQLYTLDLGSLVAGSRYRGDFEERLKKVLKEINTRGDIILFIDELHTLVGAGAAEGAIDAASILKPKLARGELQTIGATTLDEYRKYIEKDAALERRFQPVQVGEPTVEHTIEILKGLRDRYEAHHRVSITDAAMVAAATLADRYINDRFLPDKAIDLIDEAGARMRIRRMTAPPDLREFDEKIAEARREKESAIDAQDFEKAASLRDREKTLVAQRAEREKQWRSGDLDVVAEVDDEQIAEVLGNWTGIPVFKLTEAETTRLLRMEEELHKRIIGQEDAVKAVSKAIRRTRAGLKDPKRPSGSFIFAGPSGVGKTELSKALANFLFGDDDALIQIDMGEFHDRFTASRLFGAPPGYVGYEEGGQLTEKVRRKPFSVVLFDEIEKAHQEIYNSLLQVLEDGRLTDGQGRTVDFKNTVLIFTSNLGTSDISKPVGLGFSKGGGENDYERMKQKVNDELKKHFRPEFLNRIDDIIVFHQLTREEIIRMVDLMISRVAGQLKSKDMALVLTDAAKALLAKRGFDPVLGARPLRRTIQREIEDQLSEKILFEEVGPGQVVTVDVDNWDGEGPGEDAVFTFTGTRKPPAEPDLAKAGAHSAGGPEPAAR

ClpC2 WT = target: T1, ClpC2 WT (Mycobacterium tuberculosis, UniProt P9WPC7 1-252); test: EMSA; 1-25 nM ClpC2, 0.5 nM DNA, no CymA; EMSA: 5 mM HEPES-KOH pH 7.5, 30 mM KCl, 1% glycerol, 10 mM MgCl2, room temperature 20 min, 12% polyacrylamide gel; details: protein: recombinant; tags: untagged; chain copies: 2; label: 5'-FAM; blunt
T1 sequence: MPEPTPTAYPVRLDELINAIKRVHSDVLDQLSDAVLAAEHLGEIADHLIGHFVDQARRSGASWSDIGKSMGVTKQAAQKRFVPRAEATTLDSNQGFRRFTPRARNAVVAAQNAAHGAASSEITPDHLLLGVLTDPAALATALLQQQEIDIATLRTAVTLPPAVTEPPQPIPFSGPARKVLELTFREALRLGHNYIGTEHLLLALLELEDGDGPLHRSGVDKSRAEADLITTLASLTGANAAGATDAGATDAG

Molecule: lassomycin
- target binding domain (ClpC1 NTD): specifically target ClpC1 NTD

Molecule: ecumicin
- target binding domain (ClpC1 NTD): specifically target ClpC1 NTD

Molecule: ClpC1 N-terminal domain, residues 1-145 (ClpC1 NTD) (from UniProt P9WPC9 1-145) (domain or fragment)
- Kd [1]: 2.3 nM

Molecule: Mycobacterium tuberculosis ClpC2 (full length, wild type) (natural protein)
- Kd [1]: 2.2 nM
- stoichiometry N [1]: 1

Molecule: ClpC1: AAA+ chaperone ClpC1, purified Mtb protein
- affinity of ClpC1 for DNA relative to ClpC2 ([2]; EMSA): at least two orders of magnitude lower affinity than exhibited by ClpC2
- sequence specificity of ClpC1 for clpC2 operator site ([2]; EMSA with unlabelled competitor DNA): little sequence specificity for the clpC2 operator site
- KD, ClpC1 to DNA ([2]; EMSA, 1-25 µM ClpC1, 0.5 nM DNA probe with clpC2 operator site): low micromolar range

B1: clpC2_FAM_EMSA 41 bp operator probe (dsDNA)
DNA 1: ACAATGCATAACGTCAACCTACTGTTGACGTCATGCCGGAG
DNA 2: CTCCGGCATGACGTCAACAGTAGGTTGACGTTATGCATTGT
- binding result (ClpC1): binds
- binding result (ClpC2 WT): binds
